Values of other authors, collected in patent US20120015039A1, “SUSTAINED RELEASE OF NUTRIENTS IN VIVO” (New World Pharmaceuticals, LLC, priority 2007, published 2012).

How the values were obtained:
mice = settings: mouse, in vivo, iv

SMILES | LD50 (mice) | concentration at which formation of EP is inhibited (Na/K ATPase)
COC(=O)C1=CO[C@@H](O)[C@@H]2C(CO)=CC[C@H]12 [Genipin] | 382 mg/kg | –
[O]=[V]([O-])([O-])[O-] [vanadate] | – | less than 1 micromolar
